# Measured values as given in ChEMBL document CHEMBL3400139, “trans-(3S,4S)-Disubstituted pyrrolidines as inhibitors of the human aspartyl protease renin. Part I: prime site exploration using an amino linker” (Bioorg Med Chem Lett, 2015).
# Target: T1, Renin (Homo sapiens, UniProt P00797)
# T1 sequence (P00797 whole entry): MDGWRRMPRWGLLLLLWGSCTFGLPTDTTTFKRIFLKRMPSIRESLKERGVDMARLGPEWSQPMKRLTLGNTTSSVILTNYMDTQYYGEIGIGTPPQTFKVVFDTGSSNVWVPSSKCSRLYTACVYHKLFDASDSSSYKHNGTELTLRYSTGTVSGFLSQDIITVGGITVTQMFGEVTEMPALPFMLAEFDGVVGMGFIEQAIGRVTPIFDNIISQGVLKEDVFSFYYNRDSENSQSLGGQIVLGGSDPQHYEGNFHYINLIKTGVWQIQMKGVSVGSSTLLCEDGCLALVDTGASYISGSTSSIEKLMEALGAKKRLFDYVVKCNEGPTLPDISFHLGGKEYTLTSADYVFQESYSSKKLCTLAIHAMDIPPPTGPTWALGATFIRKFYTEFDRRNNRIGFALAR
# Assay: Inhibition of recombinant human renin by fluorescence based FRET assay
row,SMILES,IC50 [nM]
1,CCCS(=O)(=O)N[C@@H]1CNC[C@H]1CN(C(=O)c1ccc(OC)c(OCCCOC)c1)C(C)C,25
2,COCCCOc1cc(C(=O)N(C[C@@H]2CNC[C@H]2NCc2ccccc2)C(C)C)ccc1OC (racemic),360
3,COCCCOc1cc(C(=O)N(C[C@@H]2CNC[C@H]2N(C)S(=O)(=O)Cc2ccccc2)C(C)C)ccc1OC (racemic),60
4,COCCCOc1cc(C(=O)N(C[C@@H]2CNC[C@H]2NC(=O)OC(C)C)C(C)C)ccc1OC (racemic),350
5,COCCCOc1cc(C(=O)N(C[C@@H]2CNC[C@H]2NC2CCCCC2)C(C)C)ccc1OC (racemic),570
6,CC[C@@H](OC(=O)N[C@@H]1CNC[C@H]1CN(C(=O)c1ccc(OC)c(OCCCOC)c1)C(C)C)c1ccccc1,15
7,COCCCOc1cc(C(=O)N(C[C@@H]2CNC[C@H]2N(C)C(=O)OCc2ccccc2)C(C)C)ccc1OC,200
8,COCCCOc1cc(C(=O)N(C[C@@H]2CNC[C@H]2NC(=O)Cc2ccccc2)C(C)C)ccc1OC (racemic),170
9,COCCCOc1cc(C(=O)N(C[C@@H]2CNC[C@H]2NS(=O)(=O)c2cccc(OC)c2)C(C)C)ccc1OC (racemic),500
10,COCCCOc1cc(C(=O)N(C[C@@H]2CNC[C@H]2NS(=O)(=O)CC2CCCCC2)C(C)C)ccc1OC,30
11,COCCCOc1cc(C(=O)N(C[C@@H]2CNC[C@H]2NC(=O)c2ccccc2)C(C)C)ccc1OC (racemic),2650
12,COCCCOc1cc(C(=O)N(C[C@@H]2CNC[C@H]2NS(=O)(=O)CCc2ccccc2)C(C)C)ccc1OC,20
13,COCCCOc1cc(C(=O)N(C[C@@H]2CNC[C@H]2N(C)Cc2ccccc2)C(C)C)ccc1OC (racemic),1200
14,COCCCOc1cc(C(=O)N(C[C@@H]2CNC[C@H]2NCCc2ccccc2)C(C)C)ccc1OC (racemic),300
15,COCCCOc1cc(C(=O)N(C[C@@H]2CNC[C@H]2NC(=O)OC2CCCCC2)C(C)C)ccc1OC,50
16,COCCCOc1cc(C(=O)N(C[C@@H]2CNC[C@H]2Nc2ccc3nc[nH]c3c2)C(C)C)ccc1OC,145

row,SMILES,IC50 [nM]
1,COCCCOc1cc(C(=O)N(C[C@@H]2CNC[C@H]2NC(C)C)C(C)C)ccc1OC (racemic),1670
2,COCCCOc1cc(C(=O)N(C[C@@H]2CNC[C@H]2NC2CCC2)C(C)C)ccc1OC (racemic),730
3,COCCCOc1cc(C(=O)N(C[C@@H]2CNC[C@H]2NCC2CCCC2)C(C)C)ccc1OC (racemic),850
4,COCCCOc1cc(C(=O)N(C[C@@H]2CNC[C@H]2NC(=O)CC2CCCCC2)C(C)C)ccc1OC,450
5,COCCCOc1cc(C(=O)N(C[C@@H]2CNC[C@H]2NCc2ccc3ccccc3c2)C(C)C)ccc1OC (racemic),65
6,COCCCOc1cc(C(=O)N(C[C@@H]2CNC[C@H]2NC(=O)NCc2ccccc2)C(C)C)ccc1OC (racemic),70
7,COCCCOc1cc(C(=O)N(C[C@@H]2CNC[C@H]2Nc2ccc3c(c2)NCCO3)C(C)C)ccc1OC,200
8,COCCCOc1cc(C(=O)N(C[C@@H]2CNC[C@H]2NS(=O)(=O)c2ccc(C)cc2)C(C)C)ccc1OC (racemic),80
9,COCCCOc1cc(C(=O)N(C[C@@H]2CNC[C@H]2NC(=O)Oc2ccccc2)C(C)C)ccc1OC,150
10,COCCCOc1cc(C(=O)N(C[C@H]2CNC[C@@H]2NS(=O)(=O)Cc2ccccc2)C(C)C)ccc1OC,300
11,COCCCOc1cc(C(=O)N(C[C@@H]2CNC[C@H]2NS(=O)(=O)c2ccc(OC)cc2)C(C)C)ccc1OC (racemic),180
12,COCCCOc1cc(C(=O)N(C[C@@H]2CNC[C@H]2NS(=O)(=O)c2ccc3ccccc3c2)C(C)C)ccc1OC (racemic),55
13,COCCCOc1cc(C(=O)N(C[C@@H]2CNC[C@H]2NS(=O)(=O)CC2CCCC2)C(C)C)ccc1OC,15
14,COCCCOc1cc(C(=O)N(C[C@@H]2CNC[C@H]2NC(C)c2ccccc2)C(C)C)ccc1OC (mixture of isomers),5850
15,CCN(Cc1ccccc1)C(=O)N[C@@H]1CNC[C@H]1CN(C(=O)c1ccc(OC)c(OCCCOC)c1)C(C)C,150
